Earlier results in patent US11554190B2, “Nanocarriers for the delivery of active ingredients” (President and Fellows of Harvard College, priority 2017, dated 2023).
Like-named read-outs stand apart in the source and are kept apart here.

What was measured:
Listeria on lettuce = details: vaporized from 10% w/v hydrogen peroxide solution
[1] = test system: surface deposited influenza; details: 90 ppm of vapor phase H2O2, similar times of treatment
pathogens on surfaces = details: 5% w/v, wet approach
[2] = test system: Acinetobacter on surfaces; details: peak hydrogen peroxide concentration 500-600 ppm
bacteria = details: same amount of time

## OO [hydrogen peroxide]
Listeria on lettuce
  log reduction in concentration of Listeria on lettuce: 3 log
[1]
  log reductions of surface deposited influenza: 5 log
Pathogens on surfaces
  effectiveness against pathogens on surfaces: ineffective
[2]
  log reductions in the concentration of Acinetobacter on surfaces: 4 log
bacteria; aqueous solution at 5% concentration
  log reduction: 2.2 log
bacteria; aqueous solution at 10% concentration
  log reduction: 3.5 log
